Here are results for seven compounds from US5019573A, “Substituted dibenzofurans and methods of using same” (Euroceltique, S.A., priority 1989, dated 1991).

The term inhibition denotes the percentage by which the read-out fell short of the control.

Test [1] deals with LTB4-induced degranulation of purified human neutrophils. The experiment in a line: LTB4-induced neutrophil degranulation (myeloperoxidase release). In kind it is cell-based. Particulars: LTB4-induced MPO release; for inhibition at 30 µM: read-out: LTB-Induced Neutrophil Degranulation % Inhibition at 30 uM; for IC50: concentration-response, read-out: LTB-Induced Neutrophil Degranulation I50. The protocol: (§1) Each compound was tested in two in vitro models of LTB4 induced cell function. The cellular responses measured are presumed to be mediated via specific interactions of LTB4 with cellular receptors.
(§2) The cellular responses studied include 1) LTB4 -induced degranulation (release of myeloperoxidase) from purified human neutrophils and 2) LTB4 -induced adhesion of human neutrophils to latex beads. Each putative antagonist was tested at 30 uM for its effect on each response. Selected compounds were tested in a concentration-response fashion.
(1) Neutrophil Degranulation Assay
Neutrophils are isolated from human venous blood via a twostep sedimentation procedure, and contaminating erythrocytes are selectively lysed. The neutrophils were preincubated in 0.25% Hanks buffer containing bovine serum albumin (BSA) with 5 ug Cytochalasin B/ml cells for 5 minutes at 37° C. Neutrophils (4×10^6) are added to stimuli (LTB4 or buffer control) in the presence and absence of antagonist in Krebs-Ringer buffer to a final volume of 1.0 ml, and incubated at 37° C. for appropriate periods of time. At the end of the reaction period the neutrophils are pelleted by centrifugation at 3000 rpm for 5 minutes at 4° C.
Aliquots (0.2 ml) of the supernatants are added to polystyrene tubes to which are added the following: 0.6 ml )>25% Hanks BSA, 0.5 ml MPO buffer (0.2 M NaPO4, pH 6.2) and to start the color reaction 0.2 ml of a 1:1 v/v 0.05% H2 O2 :1.25 mg/ml dimethoxybenzidine (DMB). The reaction is allowed to run at room temperature for 15 minutes and is stopped by the addition of 0.05 ml 2% sodium azide. The developed color is quantitated in a spectrophotometer at 460 nm. The amount of myeloperoxidase (MPO) released by LTB4 stimulation can thus be determined. In order to determine the total amount of MPO in the cells an unstimulated control tube of neutrophils is lysed using 0.01 ml 10% Triton TX and the total MPO is determined via the color reaction and spectrophotometer reading. The activity of a given concentration of LTB4 is expressed as the percentage of the total MPO released. The activity of antagonists at a given concentration is expressed as a percentage of inhibiton of LTB4 -induced MPO release at a single concentration cf LTB4.

Test [2] relates to LTB4-induced adhesion of human neutrophils to latex beads. Kind of test: LTB4-induced neutrophil latex bead adhesion. In kind it is cell-based. Conditions: albumin-coated latex beads, read-out: LTB-Induced Neutrophil Bead Adhesion % Inhibition at 30 uM. The protocol:
as §1, §2
(2) Neutrophil Latex Bead Adhesion
Latex bead suspension (0.6 ml; 10% aqueous suspension; particle diameter=1u) is pipeted into a 1.5 ml eppendorf centrifuge tube. The beads are pelleted by centrifugation, the supernatant is discarded and the beads are washed 2 times with 1 ml 0.9% saline. To the pelleted beads is added 0.5 ml saline and 0.5 ml 20 mg/ml human serum albumin (HSA) in Krebs-Ringer buffer. Allow bead-albumin mixture to sit at room temperature for 10 minutes, centrifuge for 1 minute and remove the supernatant, and wash albumin-coated beads 3 times with saline. Resuspend the beads in 1 ml of Krebs-Ringer.
Human neutrophils are prepared as described for the neutrophil degranulation assay and 10^7 cells are added to 0.3 ml of Krebs-Ringerin the presence and absence of LTB4 and putative antagonist and are incubated at 37° for an appropriate period of time.
The albumin-coated beads are then added in 0.05 ml to give a final bead concentration of 1% v/v, resulting in a bead to neutrophil ratio of 100:1. The tubes containing cells and beads are then placed in an agitating water bath at 37° C. and 120 oscillation per minute for 10 minutes. The reaction is stopped by adding an equal volume of 2.5% gluteraldehyde in saline. The reaction tubes are allowed to stand at room temperature for 30 minutes. The cells are then washed 3 times (with centrifugation at 1000 rpm for 5 minutes) with saline to remove the unadhered latex beads and resuspended in 0.3 ml saline.
Wet mounts are prepared and adherence is examined by light microscopy at 400x. Adherence is scored by counting five randomly placed fields of at least 50 neutrophils per field. […] Activity of the antagonists is expressed as the percent inhibition of LTB4 induced adherence.

For `O=C(O)CC(O)c1ccc2oc3ccc(C(O)Cc4ccccc4)cc3c2c1` (centres unmarked) [Compound 11, 3-[2-[8-(1-Hydroxy)-2-phenylethyl]dibenzofuranyl]-3-hydroxypropionic Acid], the inhibition at 30 µM is 35% in test [1] and 7% in test [2].
As to `CN(C)C(=O)CC(O)c1ccc2oc3ccc(C(O)Cc4ccccc4)cc3c2c1` (centres unmarked) [Compound 12, N,N-Dimethyl-3-[2-[8-(1-hydroxy)-2-phenylethyl]dibenzofuranyl]-3-hydroxypropanamide], the inhibition at 30 µM in test [1] amounted to 100%; in test [2] it was 14%. Besides, the IC50 in test [1] came out at 13 µM.
In the case of `CN(C)C(=O)CCC(O)c1ccc2oc3ccc(C(O)Cc4ccccc4)cc3c2c1` (centres unmarked) [Compound 22, N,N-Dimethyl-4-[2-[8-(1-hydroxy)-2-phenylethyl]dibenzofuran-2-yl]-4-hydroxybutanamide], the inhibition at 30 µM worked out at 100% in test [1] and 1% in test [2].
Taken in the same sequence, the figures for `O=C(CCC(O)c1ccc2oc3ccc(C(O)Cc4ccccc4)cc3c2c1)N1CCCC1` (centres unmarked) [Compound 23, N-[4-[2-[8-(1-Hydroxy)-2-phenylethyl]dibenzofuranyl]-4-hydroxybutanoyl]pyrrolidine] were 62% and 10%.
For `O=C(O)CCCC(O)c1ccc2oc3ccc(C(O)Cc4ccccc4)cc3c2c1` (centres unmarked) [Compound 40, Sodium 5-[2-[8-(1-Hydroxy)-2-phenylethyl]dibenzofuranyl]-5-hydroxypentanoate] the same measures were 38% and 5%.
On to `CN(C)C(=O)CCCC(O)c1ccc2oc3ccc(C(O)Cc4ccccc4)cc3c2c1` (centres unmarked) [Compound 41, N,N-Dimethyl-5-[2-[8-(1-hydroxy)-2-phenylethyl]dibenzofuranyl}-5-hydroxypentanamide], for which, in test [1], the inhibition at 30 µM stood at 57% and the IC50 is 9 µM. In addition, the inhibition at 30 µM in test [2] is 2%.
Taken in the same sequence, the figures for `O=C(CCCC(O)c1ccc2oc3ccc(C(O)Cc4ccccc4)cc3c2c1)N1CCCC1` (centres unmarked) [Compound 42, N-[5-[2-[8-(1-Hydroxy)-2-phenylethyl]dibenzofuranyl]-5 hydroxypentanoyl]pyrrolidine] were 100%, 19 µM and 12%.
